Reference: patent US6340702B1 (priority 1996, dated 2002)
Values joined by “and” are separate entries in the source; they are usually repeats but may differ in a detail not shown here. Equal values may be shown once. Where a name gives a salt, the structure may show the parent alone. Read-outs that look alike come from different tables or passages of the source.

Columns and labels:
[1] = test system: mouse-acclimated influenza virus A/PR/8/34 strain; design: species or system mice (BALB/C); details: in vivo
[2] = test system: mouse-acclimated influenza virus A/PR/8/34 strain; design: species or system mice (BALB/C); details: in vivo; remark: listed apart in the source
[3] = test system: mouse-acclimated influenza virus A/PR/8/34 strain; design: species or system mice (BALB/C); details: in vivo; remark: listed apart in the source
[4] = test system: Influenza virus strain A/Yamagata/32189(H1N1); test: microbe, parasite or virus in culture; format: cell-based
[5] = target: crude influenza virus sialidase (Influenza A virus, UniProt P03468); details: Table 5; absorbance at 415 nm reduced by 50%, pH 6.5, 37° C., 20 minutes
Chain of crude influenza virus sialidase (P03468 whole entry, looked up): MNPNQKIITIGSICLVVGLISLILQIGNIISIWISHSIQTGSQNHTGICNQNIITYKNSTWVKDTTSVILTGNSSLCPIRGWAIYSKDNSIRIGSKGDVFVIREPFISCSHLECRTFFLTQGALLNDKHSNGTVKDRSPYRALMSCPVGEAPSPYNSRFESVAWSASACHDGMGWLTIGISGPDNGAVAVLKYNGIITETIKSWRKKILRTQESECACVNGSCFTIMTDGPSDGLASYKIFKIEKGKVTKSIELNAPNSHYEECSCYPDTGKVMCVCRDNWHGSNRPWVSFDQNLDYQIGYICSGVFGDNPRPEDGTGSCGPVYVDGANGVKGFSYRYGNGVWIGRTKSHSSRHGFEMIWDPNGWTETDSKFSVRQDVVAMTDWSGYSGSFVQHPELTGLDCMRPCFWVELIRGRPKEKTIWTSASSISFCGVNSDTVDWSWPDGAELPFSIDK
Description: In this experiment, a sample of influenza virus strain A/PR/8/34(H1N1) was dissolved by means of a surfactant, after which the virus membrane fraction was purified by centrifugation.
An enzyme solution was first prepared such that the final enzyme activity was 0.001 1 units/ml (1 unit corresponds to that amount of enzyme which hydrolyzes 1 μmole of substrate in 1 minute). Also prepared beforehand were aqueous solutions of test compound in various concentrations; an aqueous solution of the substrate to a concentration of 33 μg/ml, and a 20 mM 2-(N-morpholino)-ethanesulfonic acid buffer (pH 6.5) containing 50 mM calcium chloride. These solutions were combined to prepare a mixture having a final volume of 150 μl, and which was then left to stand at 37° C. for 20 minutes.

Compound: CCCCCCOC(=O)C1=CC(NC(=N)N)C(NC(C)=O)[C@H](C(O)C(O)CO)O1.O=C(O)C(F)(F)F (stereo partly drawn) [Example 2′, Hexyl 5-acetamido-2,3,4,5-tetradeoxy-4-guanidino-D-glycero-D-galacto-non-2-enopyranosoate trifluoroacetic acid salt]
- influenza infection therapeutic effects compared with Compound A [1]: superior to those of Compound A
- number of surviving mice divided by the number of test mice, Day 3 [1]: 2/8
- number of surviving mice divided by the number of test mice, Day 6 [1]: 8/8
- number of surviving mice divided by the number of test mice, Day 10 ([1]; trifluoroacetic acid salt): 1 and 1/8

Compound: CCCCCCCCCCCCCCCCOC(=O)C1=CC(NC(=N)N)C(NC(C)=O)[C@H](C(O)C(O)CO)O1.O=C(O)C(F)(F)F (stereo partly drawn) [Example 10′, Cetyl 5-acetamido-2,3,4,5-tetradeoxy-4-guanidino-D-glycero-D-galacto-non-2-enopyranosoate trifluoroacetic acid salt]
- influenza infection therapeutic effects compared with Compound A [2]: superior to those of Compound A
- number of surviving mice divided by the number of test mice, Day 8 [2]: 10/12

Compound: CCCCCCCCCCCCCCCCCC(=O)OCC(O)C(O)[C@@H]1OC(C(=O)O)=CC(NC(=N)N)C1NC(C)=O.O=C(O)C(F)(F)F (stereo partly drawn) [Example 9′, 5-Acetamido-2,3,4,5-tetradeoxy-4-guanidino-9-O-octadecanoyl-D-glycero-D-galacto-non-2-enopyranosoic acid trifluoroacetic acid salt]
- number of surviving mice divided by the number of test mice, Day 6 [3]: 10/10
- number of surviving mice divided by the number of test mice, Day 8 [3]: 4/10

Compound: CCCCCCCCCC(=O)OCC(O)C(O)[C@@H]1OC(C(=O)O)=CC(NC(=N)N)C1NC(C)=O.O=C(O)C(F)(F)F (stereo partly drawn) [Example 6′, 5-Acetamido-2,3,4,5-tetradeoxy-4-guanidino-9-O-decanoyl-D-glycero-D-galacto-non-2-enopyranosoic acid trifluoroacetic acid salt]
- number of surviving mice divided by the number of test mice, Day 6 [3]: 11/11
- number of surviving mice divided by the number of test mice, Day 8 [3]: 10/11

Compound: CCCCCCCCCCCCCCCC(=O)OCC(O)C(O)[C@@H]1OC(C(=O)O)=CC(NC(=N)N)C1NC(C)=O.O=C(O)C(F)(F)F (stereo partly drawn) [Example 7′, 5-Acetamido-2,3,4,5-tetradeoxy-4-guanidino-9-O-palmitoyl-D-glycero-D-galacto-non-2-enopyranosoic acid trifluoroacetic acid salt]
- number of surviving mice divided by the number of test mice, Day 6 [3]: 10/10
- number of surviving mice divided by the number of test mice, Day 8 [3]: 3/10

Compound: CCO[C@@H]([C@@H]1OC(C(=O)O)=C[C@H](N=C(N)N)[C@H]1NC(C)=O)[C@H](O)CO [Example 30, 5-Acetamido-4-guanidino-2,3,4,5,7-pentadeoxy-7-ethoxy-D-glycero-D-galacto-non-2-enoic acid trifluoroacetic acid salt]
- IC50 ([4]; read-out: IC50): 0.8 nM
- IC50 [5]: 7 nM

Compound: CO[C@@H]([C@@H]1OC(C(=O)O)=C[C@H](N=C(N)N)[C@H]1NC(C)=O)[C@H](O)CO [Example 28, 5-Acetamido-4-guanidino-2,3,4,5,7-pentadeoxy-7-methoxy-D-glycero-D-galacto-non-2-enopyranosoic acid trifluoroacetic acid salt]
- IC50 ([4]; read-out: IC50): 1.7 nM

Compound: CCCCCCCCCCCC(=O)OCC(O)C(O)[C@@H]1OC(C(=O)O)=CC(NC(=N)N)C1NC(C)=O.O=C(O)C(F)(F)F (stereo partly drawn) [Example 8′, 5-Acetamido-2,3,4,5-tetradeoxy-4-guanidino-9-O-dodecanoyl-D-glycero-D-galacto-non-2-enopyranosoic acid trifluoroacetic acid salt]
- number of surviving mice divided by the number of test mice, Day 6 [3]: 11/11
- number of surviving mice divided by the number of test mice, Day 8 [3]: 2/11

Compound: CCCCCCCCCCCCCCCCCCOC(=O)C1=CC(NC(=N)N)C(NC(C)=O)[C@H](C(O)C(O)CO)O1.O=C(O)C(F)(F)F (stereo partly drawn) [Example 11′, Stearyl 5-acetamido-2,3,4,5-tetradeoxy-4-guanidino-D-glycero-D-galacto-non-2-enopyranosoate trifluoroacetic acid salt]
- influenza infection therapeutic effects compared with Compound A [2]: superior to those of Compound A
- number of surviving mice divided by the number of test mice, Day 8 [2]: 11/11

Compound: CCCCCCCCCCCCCC(=O)OCC(O)C(O)[C@@H]1OC(C(=O)O)=CC(NC(=N)N)C1NC(C)=O.O=C(O)C(F)(F)F (stereo partly drawn) [Example 3′, 5-Acetamido-2,3,4,5-tetradeoxy-4-guanidino-9-O-myristoyl-D-glvcero-D-galacto-non-2-enopyranosoic acid trifluoroacetic acid salt]
- number of surviving mice divided by the number of test mice, Day 6 [3]: 10/10
- number of surviving mice divided by the number of test mice, Day 8 [3]: 10/10

Compound: CCCCCC(=O)OCC(O)C(O)[C@@H]1OC(C(=O)O)=CC(NC(=N)N)C1NC(C)=O.O=C(O)C(F)(F)F (stereo partly drawn) [Example 4′, 5-Acetamido-2,3,4,5-tetradeoxy-4-guanidino-9-O-hexanoyl-D-glycero-D-galacto-non-2-enopyranosoic acid trifluoroacetic acid salt]
- number of surviving mice divided by the number of test mice, Day 6 [3]: 10/10
- number of surviving mice divided by the number of test mice, Day 8 [3]: 6/10

Compound: CC(=O)NC1C(NC(=N)N)C=C(C(=O)O)O[C@H]1C(O)C(O)CO (stereo partly drawn) [Compound A, reference compound]
- IC50 ([4]; unidentified influenza virus, H1N1, MDCK, 40 h, Table 3, plaque number reduced to 50%, MDCK cells): 4.7 nM
- IC50 ([4]; unidentified influenza virus, H1N1, MDCK, 40 h, Table 4, plaque number reduced to 50%, MDCK cells): 11 nM
- number of surviving mice divided by the number of test mice, Day 10 [2]: dead
- number of surviving mice divided by the number of test mice, Day 8 [3]: one
- number of surviving mice divided by the number of test mice, Day 3 [1]: 3/7
- number of surviving mice divided by the number of test mice, Day 10 [1]: dead

Compound: CCCCCCCCCCCCCCOC(=O)C1=CC(NC(=N)N)C(NC(C)=O)[C@H](C(O)C(O)CO)O1.O=C(O)C(F)(F)F (stereo partly drawn) [Example 1′, Myristyl 5-acetamido-2,3,4,5-tetradeoxy-4-guanidino-D-glycero-D-galacto-non-2-enopyranosoate trifluoroacetic acid salt]
- influenza infection therapeutic effects compared with Compound A [2]: superior to those of Compound A
- number of surviving mice divided by the number of test mice, Day 8 [2]: 4/12
- influenza infection therapeutic effects compared with Compound A [1]: superior to those of Compound A
- number of surviving mice divided by the number of test mice, Day 3 [1]: 5/8
- number of surviving mice divided by the number of test mice, Day 6 [1]: 8/8

Compound: CCCCCCCC(=O)OCC(O)C(O)[C@@H]1OC(C(=O)O)=CC(NC(=N)N)C1NC(C)=O.O=C(O)C(F)(F)F (stereo partly drawn) [Example 5′, 5-Acetamido-2,3,4,5-tetradeoxy-4-guanidino-9-O-octanoyl-D-glycero-D-galacto-non-2-enopyranosoic acid trifluoroacetic acid salt]
- number of surviving mice divided by the number of test mice, Day 6 [3]: 11/11
- number of surviving mice divided by the number of test mice, Day 8 [3]: 10/11
